Where two headings read alike, the source gives them in different places.
Assays:
[1] = target: T1, human thrombin (Homo sapiens, UniProt P00734); test: Determination of thrombin-inhibiting activity; type: biochemical; settings: same manner as Example 94
T1 construct: human thrombin (a product of SIGMA Co.); purchased SIGMA Co
Experimental: 130 μl of 100 mM Tris-HCl buffer adjusted to pH 8.4 was added to 10 μl of an aqueous solution of a test compound. Then 10 μl of a solution of human thrombin (a product of SIGMA Co.) adjusted to 2 units/ml with Tris-HCl buffer of pH 8.4 was added to the resultant mixture. […] The absorbance was determined and then the initial reaction rate was determined. A control was prepared in the same manner as that described above except that the solution of the compound to be tested was replaced with 10 μl of tris hydrochloride buffer adjusted to pH 8.4.

[2] = target: T2, activated human blood coagulation factor X (Homo sapiens, UniProt P00742); test: Determination of activity of inhibiting the activated blood coagulation factor X; type: biochemical; settings: same manner as Example 93; for IC50: read-out: Activity of inhibiting activated blood coagulation factor X (pIC50) (converted)
T2 construct: purchased Enzyme Research Co
Experimental: 130 μl of 100 mM Tris-HCl buffer adjusted to pH 8.4 was added to 10 μl of an aqueous solution of a compound to be tested. Then 10 μl of a 0.5 unit/ml solution of activated human blood coagulation factor X (a product of Enzyme Research Co.) in Tris-HCl buffer hydrochloride of pH 8.4 was added to the resultant mixture. After the incubation at room temperature for 10 minutes, 50 μl of a solution of N-benzoyl-L-isoleucyl-L-glutamyl-glycyl-L-arginyl-p-nitroanilide hydrochloride (a product of Peptide Institute, Inc.) adjusted to 0.8 mM with Tris-HCl buffer (pH 8.4) was added thereto. The absorbance was determined and then the initial reaction rate was determined. A control was prepared in the same manner as that described above except that the solution of the compound to be tested was replaced with 10 μl of Tris-HCl buffer adjusted to pH 8.4.

[3] = system: blood plasma; test: Determination of blood anticoagulating activity by prothrombin time (PT); type: biochemical, human; design: key: -log of concentration doubling control PT
Experimental: The blood anticoagulating activity was determined by a prothrombin time (PT) determination method. The PT was determined as follows: The blood was taken from healthy people. […] The blood plasma was separated by the centrifugation. 5 μl of DMSO solution containing a test compound was added to 45 μl of the blood plasma. After the incubation at room temperature for 2 minutes, a test tube containing the blood plasma solution was placed in Sysmex CA-3000 fully automatic blood coagulation determination device (a product of Toa Medical Electronics Co., Ltd), and incubated at 37° C. for 3 minutes. […] PT was automatically determined with the device. A sample containing 5 μl of DMSO in place of the solution of the test compound was used as the control. The negative logarithm (PT2) of the concentration of the test compound which elongated PT of the control to the twice as long was determined, and employed as the index of the blood anticoagulating activity.

[4] = Table 2, read-out: Thrombin-inhibiting activity (pIC50) (converted)
[5] = Table 2, negative logarithm of concentration that elongated PT of the control to twice as long, plasma of healthy people
[6] = Table 3, same manner as Example 184, negative logarithm of concentration doubling PT
[7] = Table 3, read-out: Thrombin inhibiting activity (pIC50) (converted)

T2 sequence (P00742 235-488 limits assumed): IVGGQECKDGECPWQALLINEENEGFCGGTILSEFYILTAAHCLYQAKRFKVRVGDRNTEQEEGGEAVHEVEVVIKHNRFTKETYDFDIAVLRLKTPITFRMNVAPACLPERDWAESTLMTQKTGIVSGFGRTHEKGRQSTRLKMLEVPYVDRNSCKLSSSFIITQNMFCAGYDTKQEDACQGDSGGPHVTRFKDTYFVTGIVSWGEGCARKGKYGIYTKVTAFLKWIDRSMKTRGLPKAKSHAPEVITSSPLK
T2 sequence (P00742 41-179 partner limits assumed): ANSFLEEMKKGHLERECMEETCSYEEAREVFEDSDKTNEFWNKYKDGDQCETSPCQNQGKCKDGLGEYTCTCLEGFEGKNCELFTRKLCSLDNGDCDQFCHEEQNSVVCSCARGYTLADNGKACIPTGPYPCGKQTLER

| Structure (SMILES) | IC50 [1, 4] [µM] | IC50 ([2]; Table 2) [µM] | Blood anticoagulating activity (PT2) [3, 5] | Thrombin inhibiting activity (pIC50) ([1]; Table 3) | Activity of inhibiting activated blood coagulation factor X (pIC50) ([2]; Table 3) | Blood anticoagulating activity (PT2) [3, 6] | IC50 [1, 7] [µM] | IC50 ([2]; Table 3) [µM] |
| --- | --- | --- | --- | --- | --- | --- | --- | --- |
| CC(=N)N1CCC(Oc2ccc(C[C@@H](COc3cccc(C(=N)N)c3)NS(=O)(=O)c3ccc(C(=O)O)cc3)cc2)CC1.O=C(O)C(F)(F)F.O=C(O)C(F)(F)F [Compound of Ex. 168, 4-[(2S)-1-[4-(1-acetimidoyl-4-piperidyloxy)phenyl]-3-(3-amidinophenoxy)-2-propylsulfamoyl]benzoic acid bistrifluoroacetate] | 79.4 | 0.0316 | 6.2 |  |  |  |  |  |
| CC(=N)N1CCC(Oc2ccc(C[C@@H](COc3cccc(C(=N)N)c3)NS(=O)(=O)c3ccccc3)cc2)CC1.O=C(O)C(F)(F)F.O=C(O)C(F)(F)F [Compound of Ex. 158, 3-[(2S)-2-(benzenesulfonylamino)-3-[4-(1-acetimidoyl-4-piperidyloxy)phenyl]propoxy]benzamidine bistrifluoroacetate] | 50.1 | 0.158 | 6.2 |  |  |  |  |  |
| N=C(N)c1ccc(C(=O)NCCOc2cc(C(=N)N)ccc2CC(=O)C(=O)O)cc1 [Compound of Ex. 147, bistrifluoroacetate] | 20 | 0.0398 | 6.5 |  |  |  |  |  |
| CC(=N)N1CCC(Oc2ccc(C(=O)N[C@@H](COc3cc(C(=N)N)ccc3CC(=O)C(=O)O)CC(=O)O)cc2)CC1.O=C(O)C(F)(F)F.O=C(O)C(F)(F)F [Compound of Ex. 193, (3R)-4-[5-amidino-2-(2-carboxy-2-oxoethyl)phenoxy]-3-[4-(1-(1-iminoethyl)piperidyl-4-oxy)benzoylamino]butanoic acid bistrifluoroacetate] |  |  |  | 3.4 | 7.9 | 6.2 |  |  |
| CN(C)C(=O)c1ccc(C(=O)N[C@@H](COc2cc(C(=N)N)ccc2CC(=O)C(=O)O)CC(=O)O)cc1.O=C(O)C(F)(F)F [Compound of Ex. 188, (3R)-4-[5-amidino-2-(2-carboxy-2-oxoethyl)phenoxy]-3-(4-dimethylcarbamoylbenzoylamino)butanoic acid trifluoroacetate] |  |  |  |  |  | 5.7 | 398 | 0.00794 |
| N=C(N)c1cccc(OC[C@H](Cc2ccc(OC3CCNCC3)cc2)NS(=O)(=O)c2ccc(C(=O)O)cc2)c1.O=C(O)C(F)(F)F.O=C(O)C(F)(F)F [Compound of Ex. 167, 4-[(2S)-1-[4-(4-piperidyloxy)phenyl]-3-(3-amidinophenoxy)-2-propylsulfamoyl]benzoic acid bistrifluoroacetate] | 126 | 0.501 | 5 |  |  |  |  |  |
| N=C(N)c1cccc(OCCNC(=O)c2ccc(CN)cc2)c1.O=C(O)C(F)(F)F.O=C(O)C(F)(F)F [Compound of Ex. 98, N-[2-(3-amidinophenoxy)ethyl]-4-(aminomethyl)benzamide bistrifluoroacetate] | 631 | 3.16 | <4.5 |  |  |  |  |  |
| CC(=N)N1CCC(Oc2ccc(C[C@@H](COc3cc(C(=N)N)ccc3CC(=O)C(=O)O)NS(=O)(=O)c3ccccc3)cc2)CC1.O=C(O)C(F)(F)F.O=C(O)C(F)(F)F [Compound of Ex. 181, 3-[4-amidino-2-[(2S)-3-[4-(1-acetimidoyl-4-piperidyloxy)phenyl]-2-(benzenesulfonylamino)propoxy]phenyl]-2-oxopropionic acid bistrifluoroacetate] | 1.58 | 0.02 | 6.7 |  |  |  |  |  |
| CC(=N)N1CCC(Oc2ccc(C[C@H](NS(=O)(=O)c3ccccc3)C(=O)Nc3cccc(C(=N)N)c3)cc2)CC1.O=C(O)C(F)(F)F.O=C(O)C(F)(F)F [Compound of Ex. 178, (2S)—N-(3-amidinophenyl)-2-(benzenesulfonylamino)-3-[4-(1-acetimidoyl-4-piperidyloxy)phenyl]propionamide bistrifluoroacetate] | > 398 | 0.501 | 5.7 |  |  |  |  |  |
| N=C(N)c1ccc(C(=O)N[C@@H](COc2cc(C(=N)N)ccc2CC(=O)C(=O)O)CC(=O)O)cc1.O=C(O)C(F)(F)F.O=C(O)C(F)(F)F [Compound of Ex. 186, (3R)-3-(4-amidinobenzoylamino)-4-[5-amidino-2-(2-carboxy-2-oxoethyl)phenoxy]butanoic acid bistrifluoroacetate] |  |  |  |  |  | 5.9 | 251 | 0.02 |
| N=C(N)c1ccc(C(=O)NCCCOc2cccc(C(=N)N)c2)cc1.O=C(O)C(F)(F)F.O=C(O)C(F)(F)F [Compound of Ex. 122, N-[3-(3-amidinophenoxy)propyl]-4-amidinobenzamide bistrifluoroacetate] | > 1000 | 0.501 | 4.5 |  |  |  |  |  |

Source: patent publication US7396844B1, “Benzamidine derivatives” (Ajinomoto Co., Inc., priority 1997, dated 2008)
